The values that follow come from patent publication US9702005B2, “Hepatitis B viral variants with reduced susceptibility to nucleoside analogs and uses thereof” (priority 2002, dated 2017).

Molecules are shown by their SMILES.

For experiment [1], the system named is HBV. The note with it: phase II studies, 30 mg daily dose, over 12 weeks; cited from earlier work.
Experiment [2] has as its system HBV rt N236T/N238D. Briefly: In vitro drug susceptibility, recombinant HBV/baculovirus in HepG2 cells, rt N236T/N238D. The class given is cell-based, hepatitis B virus. As to the method: (§1) The sensitivity/resistance profile of HBV mutants to ADV was examined in vitro using recombinant HBV/baculovirus. The procedure for analyzing the resistance profile is outlined in the following Examples 12-20.
(§2) Sf21 insect cells were maintained in supplemented Grace's insect medium further supplemented with 10% v/v heat-inactivated fetal bovine serum (Gibco BRL, Gaithersburg, Md.) in humidified incubator at 28° C. with CO2. HepG2 cells were maintained in minimal essential medium supplemented with 10% v/v heat-inactivated fetal bovine serum (MEM-FBS). HepG2 cells were grown in humidified 37° C. incubators at 5% v/v CO2.
(§3) The recombinant HBV/baculovirus system used for antiviral testing has been previously described (Delaney et al., Antimicrob Agents Chemother 45(6): 17054013, 2001). In brief, the recombinant transfer vector was created by excising a fragment containing the 1.3X HBV genome construct and cloning it into the multiple cloning region of a baculovirus vector pBlueBac4.5 (Invitrogen, Carlsbad, Calif.). […] The nucleotide sequence of the plasmid and the point mutations generated by site directed mutagenesis were confirmed by sequencing using the ABI Prism Big Dye Terminator Cycle Sequencing Ready Reaction Kit according to the manufacturer's specifications (Perkin Elmer, Cetus Norwalk, Conn.). […]

For experiment [3], the system named is HBV rt A181T/N236T/N238D. Briefly: In vitro drug susceptibility, recombinant HBV/baculovirus in HepG2 cells, rt A181T/N236T/N238D. The class given is cell-based, hepatitis B virus. As to the method: as §1, §2
(§4) The recombinant HBV/baculovirus system used for antiviral testing has been previously described (Delaney et al., Antimicrob Agents Chemother 45(6): 17054013, 2001). In brief, the recombinant transfer vector was created by excising a fragment containing the 1.3X HBV genome construct and cloning it into the multiple cloning region of a baculovirus vector pBlueBac4.5 (Invitrogen, Carlsbad, Calif.). Point mutations were created by site directed mutagenesis using the commercial kits according to the manufacturer's specifications (QuikChange, Stratagene). HBV/baculovirus recombinant clones encoding the reverse transcriptase mutations rtA181T/N236T/N238D and […] in combination with the precore mutation at G1896A (pcW28 stop) or wild-type with respect to codon pcW28, were prepared by site-directed mutagenesis. The nucleotide sequence of the plasmid and the point mutations generated by site directed mutagenesis were confirmed by sequencing using the ABI Prism Big Dye Terminator Cycle Sequencing Ready Reaction Kit according to the manufacturer's specifications (Perkin Elmer, Cetus Norwalk, Conn.).
Purified recombinant transfer vector and linear AcMNPV baculovirus DNA were co-transfected into Sf21 cells using the BacNBlue transfection kit from Invitrogen (Carlsbad, Calif.); recombinant viruses were isolated by plaque assay according to the manufacturer's instructions. A series of recombinant viruses were amplified from isolated plaques by infecting 100-mm dishes of Sf21 cells. Viral DNA was extracted from amplified viruses using standard procedures. Purified viral DNA was digested with restriction enzymes and then fractionated by electrophoresis in a 1% […] agarose gel. Southern blotting was performed to determine which virus isolates contained the intact 1.3 HBV construct. A Boehringer Mannheim Random Prime DNA Labeling kit (Indianapolis, Ind.) was used to generate [P^32]-radiolabeled probes. A full-length double-stranded HBV genome was used as a template for all radiolabeled probes. […]

The nature of experiment [4]: ALT in patients on treatment. The class given is in vivo, human. As to the method: (§5) Patient A, a person was initially referred for evaluation of thrombocytopenia and hepatosplenomegaly. At this time the patient had abnormal LFT's (ALT 67 U/L, normal <55) and the HBV DNA was 61 pg/ml (231 days prior to the start of treatment). The patient was HBsAg and HBeAg positive. The ALT's fluctuated between 50-70 IU/L from (−231 to −35 days pretreatment). ADV was commenced on Day 0 in a clinical trial on 30 mg/day. HBV DNA levels were reduced with ADV treatment. The ADV treatment was reduced to 10 mg/day (144 days post-treatment). There was a problem with the randomization treatment protocol. The patient was on antiviral treatment for 1 month only during the second year of the treatment period. The study was completed on Day 679 post ADV treatment. The patient was not on ADV treatment until the open label ADV was recommenced on Day 875 from the start of the initial ADV treatment. This second period of ADV treatment was given for 108 days (day 983 post initial ADV treatment). […] At Day 983, ADV treatment was stopped and the patient was treated with LMV.
(§6) Patient B is a liver transplant patient. The patient has been on both sequential and combination antiviral therapy including HBIG, FCV+HBIG, LMV+HBIG, LMV, LMV+GCV, LMV+FCV+GCV, LMV+GCV and finally LMV+ADV. The patient has been on long term ADV+LMV treatment for over 795 days. Patient C, is a person. Prior to ADV treatment the patient had abnormal LFT's (ALT 240 IU/L, normal <55) and the HBV DNA was 2×10^7 copies/ml. ADV was commenced on Day 0 in a clinical trial on 10 mg/day for two years. The average ALT during the two year clinical trial period ws 114 IU/L. However, the ALT was rising and at 630 days after the start of ADV treatment the ALT remained high 407 IU/L. Open label ADV was commenced on Day 668 from the start of the initial ADV treatment. This second period of ADV treatment was given for […]. […] The peak ALT during open label ADV treatment was 517 IU/L (Day 738). The next day (Day 739), ADV treatment was stopped and the patient was treated with LMV.

Experiment [5] relates to HBV. Briefly: Hepatitis B viral DNA levels in patients on treatment (capture hybridization assay). The note with it: for HBV DNA copies/ml: open label ADV. In kind it is in vivo, human. The method, then: as §5, §6
Hepatitis B surface antigen (HBsAg), hepatitis B e antigen (HBeAg), anti-HBe and hepatitis B core antigen (HBcAg) specific IgG and IgM were measured using commercially available immunoassays (Abbott Laboratories, North Chicago, Ill., USA). Hepatitis B viral DNA levels were measured using a capture hybridization assay according to the manufacturer's directions (Digene Hybrid Capture II, Digene Diagnostics Inc., Beltsville, Md.). The manufacturers stated cut-off for detecting HBV viremia in clinical specimens was 0.7×10^6 copies/ml or 2.5 pg/ml, [Hendricks et al., Am J Clin Pathol 104: 537-46, 1995]. HBV DNA levels can also be quantitated using other commercial kits such as Cobas amplification HBV monitor kit (Roche).

Experiment [6] deals with Wild-type (pPC) HBV reference laboratory strain (genotype D subtype ayw). Put plainly: In vitro drug susceptibility, recombinant HBV/baculovirus in HepG2 cells, wild-type. The class given is cell-based, hepatitis B virus. As to the method:
as §1, §2, §4
Purified recombinant transfer vector and linear AcMNPV baculovirus DNA were co-transfected into Sf21 cells using the BacNBlue transfection kit from Invitrogen (Carlsbad, Calif.); recombinant viruses were isolated by plaque assay according to the manufacturer's instructions. […]

The subject of experiment [7] is HBV rt L180M/M204V. Briefly: In vitro drug susceptibility, recombinant HBV/baculovirus in HepG2 cells, rt L180M/M204V. The class given is cell-based, hepatitis B virus. As to the method:
as §1, §2, §3

On to `CC(C)(C)C(=O)OCOP(=O)(COCCn1cnc2c(N)ncnc21)OCOC(=O)C(C)(C)C` [ADV, adefovir dipivoxil], for which the “mean decrease in viremia” value in experiment [1] was 4 log10. In addition, the “fold increase in IC50” value in experiment [2] (rt N236T/N238D mutation, readout not stated) was “twenty-three”; in experiment [3] (rtA181T also present (triple mutant), readout not stated), “five”. Besides, the ALT in experiment [4] (Patient A, open label ADV, day 983 (end ADV)) was found to be 65 IU/L; in experiment [4] (Patient C, ADV 10 mg/day clinical trial, day 29), 160 IU/L; in experiment [4] (Patient C, ADV 10 mg/day clinical trial, day 630) it was 407 IU/L; in experiment [4] (Patient C, open label ADV, day 701), 226 IU/L; in experiment [4] (Patient C, open label ADV, day 730) it was 361 IU/L. In addition, the “ALT (peak during open label ADV)” value in experiment [4] (Patient C, open label ADV, day 738) was 517 IU/L. Also, in experiment [4] (Patient C, two year clinical trial period, ADV 10 mg/day), the “average ALT” value is reported as 114 IU/L. The “HBV DNA levels” value in experiment [5] (Patient A, ADV commenced Day 0, 30 mg/day) is listed as “reduced”. Moreover, the “HBV DNA copies/ml” value is 1.55 × 10^6 copies/ml in experiment [5] (Patient A, day 904 post-ADV treatment); 2.97 × 10^6 copies/ml in experiment [5] (Patient A, day 932); 1.76 × 10^6 copies/ml in experiment [5] (Patient A, day 959); 1.64 × 10^6 copies/ml in experiment [5] (Patient A, day 983 (end ADV)); 1.5 × 10^7 copies/ml in experiment [5] (Patient C, day 701); 3.7 × 10^6 copies/ml in experiment [5] (Patient C, day 730).

Take `Nc1ccn([C@@H]2CS[C@H](CO)O2)c(=O)n1` [Lamivudine, (-)-β-2'-deoxy-3'-thiacytidine]: the entries for the “In vitro Susceptibility IC50 (fold change from wild-type), Southern Blot” value in experiment [6], in experiment [3] (rt A181T/N236T/N238D) and in experiment [7] were 1 fold, more than 100 fold and more than 2500 fold, respectively. Besides, in experiment [4] (Patient B, day -8 (S6), pre-ADV on LMV), the ALT came to 427 IU/L.

As for `Nc1ncnc2c1ncn2CCOCP(=O)(O)O` [Adefovir, 9-[phosphonyl-methoxyethyl]-adenine], the “In vitro Susceptibility IC50 (fold change from wild-type), Real-time PCR” value in experiment [2] (Real-time PCR, rt N236T/N238D) was determined as 23 fold; in experiment [6] (Real-time PCR), 1 fold; in experiment [3] (Real-time PCR, rt A181T/N236T/N238D), 5.1 fold. In addition, the “In vitro Susceptibility IC50 (fold change from wild-type), Southern Blot” value in experiment [6] was 1 fold; in experiment [3] (rt A181T/N236T/N238D), 7.3 fold; in experiment [7], 0.9 fold.
